Literature values, collected in patent US20080063689A1, “Dietary supplements containing anthocyanins and methods for using same to enhance creatine absorption and vasodilation” (priority 2006, published 2008).

Tested on: pancreatic beta cells
Conditions: glucose concentrations within physiological norms

Row | Substance | ability to stimulate insulin secretion
1 | cyanidin-3-glycoside | highest abilities to stimulate insulin secretion
2 | delphinium 3-glycoside | highest abilities to stimulate insulin secretion
